Measurements taken from US20250388565A1, “ESTROGEN RECEPTOR ALPHA DEGRADERS AND METHODS OF USE THEREOF” (Relay Therapeutics, Inc., priority 2022, published 2025).

Target: T1, ERα protein (HiBiT-tagged) in ESR1_HiBiT KI MCF7 cells (Homo sapiens, UniProt P03372)
T1 sequence (P03372 1-595): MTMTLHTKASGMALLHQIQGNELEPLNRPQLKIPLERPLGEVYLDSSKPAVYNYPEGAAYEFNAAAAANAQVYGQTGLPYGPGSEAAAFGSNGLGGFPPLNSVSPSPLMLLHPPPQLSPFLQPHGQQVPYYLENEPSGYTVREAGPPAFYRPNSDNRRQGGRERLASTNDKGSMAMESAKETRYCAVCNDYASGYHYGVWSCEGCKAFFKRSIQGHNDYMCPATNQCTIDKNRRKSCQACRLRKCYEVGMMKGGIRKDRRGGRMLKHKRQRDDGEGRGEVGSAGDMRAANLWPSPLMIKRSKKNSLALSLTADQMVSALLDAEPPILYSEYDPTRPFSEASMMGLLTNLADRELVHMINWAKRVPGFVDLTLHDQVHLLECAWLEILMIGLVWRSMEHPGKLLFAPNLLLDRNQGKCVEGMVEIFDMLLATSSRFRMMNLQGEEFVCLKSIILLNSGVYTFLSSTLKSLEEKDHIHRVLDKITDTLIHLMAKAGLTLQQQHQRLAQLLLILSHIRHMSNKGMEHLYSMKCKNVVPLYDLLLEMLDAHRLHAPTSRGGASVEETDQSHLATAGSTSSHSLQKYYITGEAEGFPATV
Test: Nano Glo HiBiT Lytic Degradation Assay
Assay type: cell-based
Settings: 6 hours with compound, 14-point dose response 1:3, bell-shape curve fit, half-maximal effect of first Hill model, read-out: MCF7 ESR1 HiBiT - (DC50)
Procedure, shortened: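 Lytic Nano-Glo HiBiT luminescence quantified ERα remaining after a 6 h, 37° C compound exposure of MCF7 cells carrying endogenous HiBiT-tagged ESR1. Dosing used 14 threefold dilutions from a 10 mM DMSO stock (0.1% DMSO final), run in duplicate. Signals were corrected for cell-free background and expressed relative to DMSO, and DC50 came from a bell-shaped curve fit (first Hill model half-maximum).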

Row | SMILES | DC50 [nM]
1 | O=C1CC[C@H](N2Cc3cc(N4CCN(CC5CCN(c6ccc([C@H]7c8ccc(O)cc8CO[C@H]7C7CCCCC7)cc6)CC5)CC4)ccc3C2=O)C(=O)N1 [Compound I-250, (S)-3-(5-(4-((1-(4-((3S,4S)-3-cyclohexyl-7-hydroxyisochroman-4-yl)phenyl)piperidin-4-yl)methyl)piperazin-1-yl)-1-oxoisoindolin-2-yl)piperidine-2,6-dione] | 64
2 | O=C1CC[C@H](N2Cc3cc(N4CCN(C[C@@H]5CCCN(c6ccc([C@@H]7c8ccc(O)cc8CC[C@@H]7c7ccccc7)cc6)C5)CC4)ccc3C2=O)C(=O)N1 (single isomer, unassigned) [II-20] | ≥ 10000
3 | O=C1CC[C@H](N2Cc3cc(N4CCN(CC5CCN(c6ccc([C@@H]7c8ccc(O)cc8CC[C@@H]7c7cccc(O)c7)cc6)CC5)CC4)ccc3C2=O)C(=O)N1 [Compound I-126, (3S)-3-[5-[4-[[1-[4-[(1R,2S)-6-hydroxy-2-(3-hydroxyphenyl)tetralin-1-yl]phenyl]-4-piperidyl]methyl]piperazin-1-yl]-1-oxo-isoindolin-2-yl]piperidine-2,6-dione] | 0.07
4 | Cn1nc(C2CCC(=O)NC2=O)c2ccc(N3CCN(CC4CCN(c5ccc([C@@H]6c7ccc(O)cc7CO[C@@H]6c6ccccc6)cc5)CC4)CC3)cc21 (stereo partly drawn) [Compound I-393, 3-[6-[4-[[1-[4-[(3S,4R)-7-hydroxy-3-phenyl-isochroman-4-yl]phenyl]-4-piperidyl]methyl]piperazin-1-yl]-1-methyl-indazol-3-yl]piperidine-2,6-dione] | 0.36
5 | O=C1CC[C@H](N2Cc3cc(N4CCN(CC5CCN(c6ccc([C@H]7c8ccc(O)cc8CC[C@H]7C7CCC8(CC7)CC8)cc6)CC5)CC4)ccc3C2=O)C(=O)N1 [Compound I-145] | ≥ 10000
6 | O=C1CC[C@H](N2Cc3cc(N4CCN(CC5CCN(c6ccc([C@@H]7c8ccc(O)cc8CC[C@@H]7C7CCCCC7)cc6F)CC5)CC4)ccc3C2=O)C(=O)N1 [Compound I-162, (S)-3-(5-(4-((1-(4-((1R,2R)-2-cyclohexyl-6-hydroxy-1,2,3,4-tetrahydronaphthalen-1-yl)-2-fluorophenyl)piperidin-4-yl)methyl)piperazin-1-yl)-1-oxoisoindolin-2-yl)piperidine-2,6-dione] | 3
7 | O=C1CC[C@H](N2Cc3cc(N4CCN(C[C@@H]5CCN(c6ccc([C@H]7c8ccc(O)cc8CC[C@H]7c7ccccc7)cc6)C5)CC4)ccc3C2=O)C(=O)N1 (single isomer, unassigned) [II-33] | 2
8 | Cn1cc([C@H]2CCc3cc(O)ccc3[C@H]2c2ccc(N3CCC(CN4CCN(c5ccc6c(c5)CN([C@H]5CCC(=O)NC5=O)C6=O)CC4)CC3)cc2)cn1 [Compound I-30] | 2
9 | COc1cc(N2CCC(CN3CCN(c4ccc5c(c4)CN([C@H]4CCC(=O)NC4=O)C5=O)CC3)CC2)ccc1[C@H]1c2ccc(O)cc2CC[C@H]1C1CCCCC1 [Compound I-151, (S)-3-(5-(4-((1-(4-((1R,2S)-2-cyclohexyl-6-hydroxy-1,2,3,4-tetrahydronaphthalen-1-yl)-3-methoxyphenyl)piperidin-4-yl)methyl)piperazin-1-yl)-1-oxoisoindolin-2-yl)piperidine-2,6-dione] | 11
10 | C[C@H]1O[C@H](C2CCCCC2)[C@@H](c2ccc(N3CCC(CN4CCN(c5ccc6c(c5)CN([C@H]5CCC(=O)NC5=O)C6=O)CC4)CC3)cc2)c2ccc(O)cc21 (single isomer, unassigned) [Compound I-255] | 0.87
11 | Cc1ccccc1[C@@H]1CC(F)(F)c2cc(O)ccc2[C@@H]1c1ccc(N2CCC(CN3CCN(c4ccc5c(c4)CN([C@H]4CCC(=O)NC4=O)C5=O)CC3)CC2)cc1 [Compound I-323, (S)-3-(5-(4-((1-(4-((1S,2R)-4,4-difluoro-6-hydroxy-2-(o-tolyl)-1,2,3,4-tetrahydronaphthalen-1-yl)phenyl)piperidin-4-yl)methyl)piperazin-1-yl)-1-oxoisoindolin-2-yl)piperidine-2,6-dione] | 33
12 | Cn1nc([C@H]2CCC(=O)NC2=O)c2ccc(N3CCN(CC4CCN(c5ccc([C@@H]6c7ccc(O)cc7CC[C@@H]6c6ccccc6)cc5)CC4)CC3)cc21 (single isomer, unassigned) [Compound I-295] | 0.84
13 | O=C1CCC(N2Cc3cc([C@H]4CCN(CC5CCN(c6ccc([C@@H]7c8ccc(O)cc8CC[C@@H]7c7ccccc7)cc6)CC5)C[C@H]4O)ccc3C2=O)C(=O)N1 (single isomer, unassigned) [II-108] | 0.45
14 | O=C1CC[C@H](N2Cc3cc(N4CCN(CC5CCN(c6ccc([C@H]7c8ccc(O)cc8CC[C@H]7C78CC9CC(CC(C9)C7)C8)cc6)CC5)CC4)ccc3C2=O)C(=O)N1 [Compound I-241, (S)-3-(5-(4-((1-(4-((1S,2R)-2-((3S,5S,7S)-adamantan-1-yl)-6-hydroxy-1,2,3,4-tetrahydronaphthalen-1-yl)phenyl)piperidin-4-yl)methyl)piperazin-1-yl)-1-oxoisoindolin-2-yl)piperidine-2,6-dione] | 370
15 | O=C1CC[C@H](N2Cc3cc(N4CCN(CC5CCN(c6cc(F)c([C@H]7c8ccc(O)cc8CC[C@H]7C7CCCCC7)c(F)c6)CC5)CC4)ccc3C2=O)C(=O)N1 [Compound I-118, (S)-3-(5-(4-((1-(4-((1R,2S)-2-cyclohexyl-6-hydroxy-1,2,3,4-tetrahydronaphthalen-1-yl)-3,5-difluorophenyl)piperidin-4-yl)methyl)piperazin-1-yl)-1-oxoisoindolin-2-yl)piperidine-2,6-dione] | 600
16 | C[C@@H]1CN(c2ccc3c(c2)CN([C@H]2CCC(=O)NC2=O)C3=O)CCN1CC1CCN(c2ccc([C@@H]3c4ccc(O)cc4CC[C@@H]3c3ccccc3)cc2)CC1 [II-2] | 1
17 | Cc1cc([C@H]2c3ccc(O)cc3CC[C@H]2c2ccccc2)ccc1N1CCC(CN2CCN(c3ccc4c(c3)CN([C@H]3CCC(=O)NC3=O)C4=O)CC2)CC1 (single isomer, unassigned) [II-43] | 2
18 | COc1cccc([C@@H]2OCc3cc(O)ccc3[C@@H]2c2ccc(N3CCC(CN4CCN(c5ccc6c(c5)CN([C@H]5CCC(=O)NC5=O)C6=O)CC4)CC3)cc2)c1 [Compound I-374, (S)-3-(5-(4-((1-(4-((3R,4S)-7-hydroxy-3-(3-methoxyphenyl)isochroman-4-yl)phenyl)piperidin-4-yl)methyl)piperazin-1-yl)-1-oxoisoindolin-2-yl)piperidine-2,6-dione] | 8
19 | O=C1CC[C@H](N2Cc3cc(N4CCN(CC5CCN(c6ccc([C@H]7c8ccc(O)cc8C(F)(F)C[C@H]7c7ccc(F)c(F)c7)cc6)CC5)CC4)ccc3C2=O)C(=O)N1 [Compound I-315, (S)-3-(5-(4-((1-(4-((1S,2R)-2-(3,4-difluorophenyl)-4,4-difluoro-6-hydroxy-1,2,3,4-tetrahydronaphthalen-1-yl)phenyl)piperidin-4-yl)methyl)piperazin-1-yl)-1-oxoisoindolin-2-yl)piperidine-2,6-dione] | ≥ 10000
20 | O=C1CC[C@H](N2Cc3cc(N4CCN(CC5CCN(c6ccc([C@@H]7c8ccc(O)cc8CC[C@@H]7C78CC9CC(CC(C9)C7)C8)cc6)CC5)CC4)ccc3C2=O)C(=O)N1 [Compound I-161, (S)-3-(5-(4-((1-(4-((1R,2S)-2-((3R,5R,7R)-adamantan-1-yl)-6-hydroxy-1,2,3,4-tetrahydronaphthalen-1-yl)phenyl)piperidin-4-yl)methyl)piperazin-1-yl)-1-oxoisoindolin-2-yl)piperidine-2,6-dione] | 8
21 | O=C1CCC(c2ccc(N3CCN(C4CCN(c5ccc([C@@H]6c7ccc(O)cc7CC[C@@H]6c6ccccc6)cc5)CC4)CC3)cc2)C(=O)N1 (single isomer, unassigned) [Compound I-40] | 370
22 | C[C@@H]1O[C@@H](c2ccccc2)[C@@H](c2ccc(N3CCC(CN4CCN(c5ccc6c(c5)CN([C@H]5CCC(=O)NC5=O)C6=O)CC4)CC3)cc2)c2ccc(O)cc21 (single isomer, unassigned) [Compound I-368] | 3
23 | O=C1CC[C@H](N2Cc3cc(N4CCN(CC5CCN(c6ccc([C@@H]7c8ccc(O)cc8CC[C@@H]7C7CCCCC7)cc6)CC5)CC4)ccc3C2=O)C(=O)N1 [Compound I-6, (3S)-3-[5-[4-[[1-[4-[(1R,2R)-2-cyclohexyl-6-hydroxy-tetralin-1-yl]phenyl]-4-piperidyl]methyl]piperazin-1-yl]-1-oxo-isoindolin-2-yl]piperidine-2,6-dione] | 2.24
24 | O=C1CC[C@H](N2Cc3cc(N4CCN(CC5CCN(c6ccc([C@@H]7c8ccc(O)cc8C(F)(F)C[C@@H]7c7ccccc7)nc6)CC5)CC4)ccc3C2=O)C(=O)N1 [Compound I-203, (S)-3-(5-(4-((1-(6-((1S,2S)-4,4-difluoro-6-hydroxy-2-phenyl-1,2,3,4-tetrahydronaphthalen-1-yl)pyridin-3-yl)piperidin-4-yl)methyl)piperazin-1-yl)-1-oxoisoindolin-2-yl)piperidine-2,6-dione] | 0.23
25 | O=C1CC[C@H](N2Cc3cc(N4CCN(CC5CC6CCC(C5)N6c5ccc([C@@H]6c7ccc(O)cc7CC[C@@H]6c6ccccc6)cc5)CC4)ccc3C2=O)C(=O)N1 (single isomer, unassigned) [II-47] | 2
